Positions of bridges follow the written chain, without caps; N, C: chain ends. Chains are numbered I, II in the order given. No end group written: not given here.
Experiments:
[1] = system: double-Ig module (Ig1-Ig2) of NCAM; test: Surface plasmon resonance, negative control protein; format: binding; conditions: SPR
Protocol: The binding analysis was performed using a Biacore 2000 instrument (GE Healthcare Life Sciences) that contained 150 mM NaCl as running buffer at 25°C with 10 mM sodium phosphate (pH 7.4). The flow rate was 5 μl/min during immobilization. Ilantide peptide, IL-1β or IL-1Ra was immobilized on a CM4 sensor chip according to the manufacturer’s instructions, after which the recombinant ectodomain of IL-1RI (R&D Systems) was injected. The neural cell adhesion molecule (NCAM) immunoglobulin modules 1 and 2 (Ig1 and Ig2) were used as a negative control protein [9]. The data were analyzed using nonlinear curve-fitting with the manufacturer’s software.

[2] = system: AMJ2-C8 macrophages; test: TNF-α secretion from IL-1β-activated macrophages (L929 bioassay); format: cell-based, mouse; conditions: 1.2 pM IL-1β, 24 hours; TNF-α by L929 survival with actinomycin D; hydrocortisone at 100 μM
Protocol: A murine alveolar macrophage cell line, AMJ2-C8 (American Type Culture Collection, Borås, Sweden), was routinely grown at 37°C with 5% CO2 in DMEM supplemented with 5% (vol/vol) FCS, 0.5% (v/v) 2-[4-(2-hydroxyethyl)piperazin-1-yl]ethanesulfonic acid (HEPES) (Gibco BRL), 2 mM GlutaMAX, 100 U/ml penicillin and 100 μg/ml streptomycin.
AMJ2-C8 macrophages were seeded into six-well multidishes at a density of 2.5 × 10^5 cells/well, and sIL-1RI, IL-1Ra or various concentrations of Ilantide were added to the cultures. Treatment with 100 μM hydrocortisone (Sigma-Aldrich, Brøndby, Denmark) was used as a positive control. After 10-minute incubation at 37°C, 1.2 pM IL-1β or IFN-γ (R&D Systems) was added to activate the macrophages. L929 cells were seeded onto a 96-well plate (Nunc, Roskilde, Denmark) at a density 0.2 × 10^2 cells/ml. Both cell cultures were incubated for 24 hours at 37°C. Conditioned medium from macrophages was collected and added to the L929 cell cultures together with actinomycin D (0.6 μg/well; Sigma-Aldrich). TNF-α is known to induce classic apoptosis in L929 cells in the presence of actinomycin D [12]. After 24-hour incubation at 37°C, 20 μl of 3-(4,5-dimethylthiazol-2-yl)-5-(3-carboxymethoxyphenyl)-2-(4-sulfophenyl)-2H-tetrazolium (Promega, Madison, WI, USA) were added to each well and incubated at 37°C in the dark for 45 minutes, then measured in an ELISA reader at 490 nm. To calculate the amount of TNF-α in the conditioned medium, fibroblasts were treated with standard concentrations of TNF-α (R&D Systems).

[3] = system: Cerebellar granule neurons; test: Survival of cerebellar granule neurons induced to undergo apoptosis by low potassium; format: cell-based, rat; conditions: 5 mM KCl, survival estimated 48 hours later
Protocol: Cerebellar granule neurons (CGNs) were prepared from 7-day-old Wistar rats (from Charles River Laboratories, Sulzfeld, Germany; or from Hygind Møllegård Erik Møllegaard Hansen, Ejby, Denmark) as previously described. Briefly, the cerebella were cleared of meninges and blood vessels, roughly homogenized by chopping and trypsinized. The cells were washed in the presence of DNAse I and soybean trypsin inhibitor (Sigma-Aldrich, St Louis, MO, USA), and cellular debris was pelleted by centrifugation. The fibroblastoid mouse cell line L929 (LVN; European Collection of Cell Cultures, Porton Down, UK) was routinely grown at 37°C with 5% CO2 in DMEM supplemented with 10% (vol/vol) FCS, 2 mM GlutaMAX, 100 U/ml penicillin and 100 μg/ml streptomycin.
Cerebellar granule neurons were plated at a density of 1 × 10^5 cells/cm^2 on poly-L-lysine-coated, eight-well Permanox Lab-Tek chamber slides (Nunc) in Neurobasal-A medium supplemented with 2% (vol/vol) B27 (Gibco BRL), 0.5% (vol/vol) GlutaMAX, 100 U/ml penicillin and 100 μg/ml streptomycin. The CGN survival assay was performed as previously described. The neurite outgrowth assay was also performed as previously described.
Figure 5 Effect of Ilantide and interleukin 1 receptor antagonist on survival of cerebellar granule neurons induced to undergo apoptosis. The neurons were allowed to differentiate for 7 days in a high-potassium (40 mM) medium before apoptosis was induced by changing to a low-potassium medium (5 mM). Survival was estimated 48 hours later. (A) The effect of insulin-like growth factor 1 (IGF-1), interleukin 1 receptor antagonist (IL-1Ra) and IL-1β on cerebellar granule neuron (CGN) apoptosis induced by 5 mM KCl. (B) The effect of Ilantide-m on CGN apoptosis induced by 5 mM KCl. […] The results from at least four independent experiments are expressed as mean ± SEM with untreated cultures induced to undergo apoptosis by 5 mM KCl set at 100%. *P < 0.05 and **P < 0.01 compared with untreated cultures induced to undergo apoptosis (one-way analysis of variance followed by Newman-Keuls post hoc test).

[4] = system: HEK-Blue IL-1β cells (IL-1RI / NF-κB); test: IL-1β-induced NF-κB activation, SEAP reporter; format: cell-based; conditions: 1.2 pM IL-1β, 24 hours, SEAP read at 600 nm, four independent experiments
Protocol: HEK-Blue IL-1β cells that contained an IL-1β-sensitive reporter (InvivoGen, San Diego, CA, USA) and HEK-Blue IL-6 cells that contained an IL-6-sensitive reporter (InvivoGen) were grown at 37°C with 5% CO2 in Dulbecco’s modified Eagle’s medium (DMEM) supplemented with 5% (vol/vol) fetal calf serum (FCS), 4.5 g/L glucose, 2 mM GlutaMAX medium, 100 U/ml penicillin, 100 μg/ml streptomycin (all obtained from Gibco BRL/Life Technologies, Taastrup, Denmark), 100 μg/ml zeocin, 200 μg/ml hygromycin and 100 μg/ml Normocin (all purchased from InvivoGen).
HEK-Blue IL-1β cells allow the monitoring of the activation of the NF-κB pathway specifically in response to IL-1β. They express a NF-κB-inducible secreted embryonic alkaline phosphatase (SEAP) reporter gene. The binding of IL-1β to its receptor IL-1RI on the surface of HEK-Blue IL-1β cells triggers a signaling cascade that leads to the activation NF-κB and the subsequent production of SEAP. HEK-Blue IL-1β cells were grown as described above. The cells were seeded onto a 96-well plate at a density 3.5 × 10^5 cells/ml. For the NF-κB activation assay, the cells were treated with 1.2 pM IL-1β alone or together with sIL-1RI, IL-1Ra or various concentrations of Ilantide. After 24 hours of incubation at 37°C, 150 μl of the cell supernatants were added to each well of a 96-well plate together with 50 μl of QUANTI-Blue (InvivoGen), incubated at 37°C for 40 minutes and measured in an enzyme-linked immunosorbent assay (ELISA) reader at 600 nm to determine the expression levels of reporter genes activated by NF-κB.

Substance | Binding to double-Ig module of NCAM (negative control) [1] | Inhibition of IL-1β-induced TNF-α secretion in macrophages [2] | CGN survival after potassium withdrawal [3] | Inhibition of NF-κB activation induced by IL-1β [4]
I: SGRKSSKMQAKK-NH2 / II: SGRKSSKMQAK / III: SGRKSSKMQA / IV: SGRKSSKMQA (amide I:11-IV:C, I:12-II:C, II:11-III:C; C-terminus assumed) [Ilantide-t] | no significant binding | significantly inhibited | concentration-dependently promoted CGN survival | dose-dependently inhibited
IL-1Ra: recombinant interleukin 1 receptor antagonist purchased from R&D Systems | no significant binding | significantly inhibited | concentration-dependently promoted CGN survival | dose-dependently inhibited
